Measured values from patent publication US20140135357A1, “DOSE REGIME FOR CAMPTOTHECIN DERIVATIVES” (Taiwan Liposome Company, Ltd., priority 2012, published 2014).
“Also recorded” adds a separate entry of the source. Where two headings read alike, the source gives them in different places.

Columns and labels:
[1] = human, in vivo
Method: (§1) A non-randomized phase I clinical trial was conducted at 4 institutions in the US and Taiwan.
(§2) Patients were included in this trial if they are over the age of 18, with advanced cancer and the ECOG performance status is 0 or 1. […] Patients were excluded from the study if they have previously received more than 3 regimens of chemotherapy, or if they have received chemotherapy or radiotherapy within 4 weeks of the trial recruitment.
(§3) Eligible patients were given the pharmaceutical composition of the present invention, comprising a mixture of TLC388HCl and mPEG2000-DSPE in a molar ratio of 1:0.7 to 1:0.9 (known as Lipotecan®). […] The pharmaceutical composition was administered as a 30-min IV infusion, on days 1, 8, and 15 of a 28-day cycle (i.e. 3 IV infusions per 28-day cycle).
(§4) Serum samples were collected from the patients for pharmacokinetic analysis on day 1, day 8 and day 15 of Cycles 1 and 2, at the following times:
(§5) Post IV infusion: (Day 1 and 8 of Cycle 1): 33 min; 40 min; 50 min; 1 h; 1 h 30 min; 2 h; 4 h and 8 h. Post IV infusion (Day 15 of Cycle 1 and Day 1, 8, and 15 of Cycle 2): 4 h. Patients were assessed every 8 weeks, after 2 cycles of treatments.
(§6) During the 2-cycle study period, the patients were examined regularly for the following outcomes: • Side effect/DLT; • The pK profiles of the (S,S) and (S,R) diastereomers of TLC388HCl, its 3 metabolites (TLC-U1, TLC-U2 and Topotecan) on day 1 and day 8 of the treatment cycle; and • Anti-cancer efficacy.

[2] = in-vitro study of anti-proliferative activity; assay type: cell-based
topoisomerase I = target: T1, topoisomerase I (Homo sapiens, UniProt P11387); assay: Topoisomerase I inhibition; assay type: biochemical
T1 sequence (P11387 1-765): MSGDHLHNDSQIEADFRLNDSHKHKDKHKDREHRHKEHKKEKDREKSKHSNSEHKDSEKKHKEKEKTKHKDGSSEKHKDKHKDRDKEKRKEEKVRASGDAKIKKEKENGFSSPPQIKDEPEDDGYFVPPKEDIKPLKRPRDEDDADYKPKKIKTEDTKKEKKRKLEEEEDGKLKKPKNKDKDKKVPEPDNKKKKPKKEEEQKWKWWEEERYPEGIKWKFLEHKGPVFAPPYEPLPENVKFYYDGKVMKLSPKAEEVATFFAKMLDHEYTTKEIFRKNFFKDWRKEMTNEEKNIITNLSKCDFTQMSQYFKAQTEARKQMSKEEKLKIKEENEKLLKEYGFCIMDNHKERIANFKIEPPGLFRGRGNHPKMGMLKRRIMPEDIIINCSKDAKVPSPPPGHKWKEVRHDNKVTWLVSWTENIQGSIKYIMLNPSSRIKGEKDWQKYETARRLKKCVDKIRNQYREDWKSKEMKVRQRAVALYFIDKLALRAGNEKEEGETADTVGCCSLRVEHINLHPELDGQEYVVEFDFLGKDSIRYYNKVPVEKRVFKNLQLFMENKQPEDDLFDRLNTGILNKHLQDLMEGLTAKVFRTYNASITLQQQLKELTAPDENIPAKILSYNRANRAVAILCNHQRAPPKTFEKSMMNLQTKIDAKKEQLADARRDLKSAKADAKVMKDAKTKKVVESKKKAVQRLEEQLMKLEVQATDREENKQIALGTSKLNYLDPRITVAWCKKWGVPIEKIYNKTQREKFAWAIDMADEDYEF

clinical = conditions: human, in vivo
Method: as §1, §2, §3, §4, §5, §6

Which results are given for `CC[C@@]1(OC(=O)[C@H](C)O)C(=O)OCc2c1cc1n(c2=O)Cc2cc3c(CN(C)C)c(O)ccc3nc2-1` [TLC-U2, S,S-topotecan lactate]?
Dose-normalized AUClast [1]: 4.05 ± 1.34 nM*h/(mg/m^2); Dose-normalized Cmax [1]: 2.84 ± 0.97 nM/(mg/m^2); difference between PK profiles on Day 1 and Day 8 [1]: no significant difference; dose proportionality of exposure [1]: roughly dose proportional; AUC0-t ([1]; 1.5 mg/m2): 2.872 (0.882) hr · ng/mL; Cmax ([1]; 1.5 mg/m2): 2.117 (0.468) ng/mL; Tmax ([1]; 1.5 mg/m2): 0.505 (0.039) hr; t1/2 ([1]; 1.5 mg/m2): 1.953 (0.698) hr; AUC0-t ([1]; 3 mg/m2): 5.625 (1.972) hr · ng/mL; AUC0-t ([1]; 6 mg/m2): 11.599 (1.437) hr · ng/mL; AUC0-t ([1]; 9 mg/m2): 16.581 (3.976) hr · ng/mL; AUC0-t ([1]; 20 mg/m2): 29.023 (7.443) hr · ng/mL; AUC0-t ([1]; 30 mg/m2): 78.761 (50.88) hr · ng/mL; AUC0-t ([1]; 35 mg/m2): 102.97 (20.18) hr · ng/mL; Cmax ([1]; 35 mg/m2): 74.800 (42.82) ng/mL; Tmax ([1]; 35 mg/m2): 0.592 (0.091) hr; t1/2 ([1]; 35 mg/m2): 3.347 (1.219) hr; AUC0-t ([1]; 40 mg/m2): 72.758 (49.22) hr · ng/mL; AUC0-t ([1]; 50 mg/m2): 97.314 (38.34) hr · ng/mL; AUC0-t ([1]; 60 mg/m2): 109.80 (25.72) hr · ng/mL; time at which peak plasma concentrations (Cmax) were achieved ([1]; iv): within one hour; time of rapid rise of the metabolites in the serum after starting the infusion ([1]; iv): ≤ 15 min; anti-proliferative activity [2]: comparable to that of TLC 388HCl; also recorded: more potent than that of TLC-U1; topoisomerase I inhibition (topoisomerase I): weak topoisomerase I Inhibitors; AUC0-t (clinical; 1.5 mg/m2, AUC0-t): 3.74 ng·h/mL; Cmax (clinical; 1.5 mg/m2, Cmax): 3.34 ng/mL; Tmax (clinical; 1.5 mg/m2, Tmax): 37.7 min; half-life (clinical; 1.5 mg/m2, t1/2): 138 min; AUC0-t (clinical; 3 mg/m2, AUC0-t): 7.91 ng·h/mL; Cmax (clinical; 3 mg/m2, Cmax): 5.14 ng/mL; Tmax (clinical; 3 mg/m2, Tmax): 28 min; half-life (clinical; 3 mg/m2, t1/2): 140 min; AUC0-t (clinical; 6 mg/m2, AUC0-t): 11.6 ng·h/mL; Cmax (clinical; 6 mg/m2, Cmax): 7.52 ng/mL; Tmax (clinical; 6 mg/m2, Tmax): 28 min; half-life (clinical; 6 mg/m2, t1/2): 148 min; AUC0-t (clinical; 9 mg/m2, AUC0-t): 15.5 ng·h/mL; Cmax (clinical; 9 mg/m2, Cmax): 11.5 ng/mL; Tmax (clinical; 9 mg/m2, Tmax): 30.2 min; half-life (clinical; 9 mg/m2, t1/2): 195 min; AUC0-t (clinical; 13.5 mg/m2): 29.1 ng·h/mL; Cmax (clinical; 13.5 mg/m2): 18.1 ng/mL; Tmax (clinical; 13.5 mg/m2): 22 min; half-life (clinical; 13.5 mg/m2): 147 min; AUC0-t (clinical; 20 mg/m2, AUC0-t): 33.6 ng·h/mL; Cmax (clinical; 20 mg/m2, Cmax): 28.6 ng/mL; Tmax (clinical; 20 mg/m2, Tmax): 29 min; half-life (clinical; 20 mg/m2, t1/2): 149 min; AUC0-t (clinical; 30 mg/m2, AUC0-t): 49.5 ng·h/mL; Tmax (clinical; 30 mg/m2, Tmax): 25.5 min; half-life (clinical; 30 mg/m2, t1/2): 139 min; AUC0-t (clinical; 35 mg/m2, AUC0-t): 88.2 ng·h/mL; Cmax (clinical; 35 mg/m2, Cmax): 48.5 ng/mL; Tmax (clinical; 35 mg/m2, Tmax): 36.5 min; half-life (clinical; 35 mg/m2, t1/2): 188 min; AUC0-t (clinical; 40 mg/m2, AUC0-t): 74.1 ng·h/mL; Cmax (clinical; 40 mg/m2, Cmax): 52.5 ng/mL; Tmax (clinical; 40 mg/m2, Tmax): 26.7 min; half-life (clinical; 40 mg/m2, t1/2): 157 min; AUC0-t (clinical; 50 mg/m2, AUC0-t): 101 ng·h/mL; Cmax (clinical; 50 mg/m2, Cmax): 65.7 ng/mL; Tmax (clinical; 50 mg/m2, Tmax): 23.4 min; half-life (clinical; 50 mg/m2, t1/2): 153 min; AUC0-t (clinical; 60 mg/m2, AUC0-t): 107 ng·h/mL; Cmax (clinical; 60 mg/m2, Cmax): 87.4 ng/mL; Tmax (clinical; 60 mg/m2, Tmax): 27 min; half-life (clinical; 60 mg/m2, t1/2): 153 min; Tmax (clinical; 60 mg/m2, tmax): 28.2 ± 8.4 min; half-life (clinical; T1/2): > 150 min; Tmax (clinical; Tmax): < 60 min
